These results are taken from paper PMC10724293, “New ruthenium-xanthoxylin complex eliminates colorectal cancer stem cells by targeting the heat shock protein 90 chaperone” (Cell Death & Disease, 2023).

pIC50: −log10 of the molar value.

The test system of one series is CAL 27. The series is described as follows: Alamar blue cytotoxicity assay. Conditions: 72 h, read-out: IC50 and 95%CI. It counts as cell-based, human. The protocol: (§1) The Alamar blue assay was used to determine cell viability as previously described. Cells were seeded into 96-well plates at a density of 7 × 10^3 cells per well for adherent cells or 3 × 10^4 cells per well for suspended cells. The drug was added to each well after 24 h of incubation for adherent cells or immediately for suspended cells and incubated for an additional 72 h. […] Each well received 100 µM resazurin (Sigma-Aldrich Co. St. Louis, MO, United States) four (for cell lines) or 24 (for primary culture) h before the end of the incubation. A SpectraMax 190 Microplate Reader (Molecular Devices, Sunnyvale, CA, USA) was used to measure absorbance at 570 and 600 nm.

A further series deals with K-562. The series is described as follows: Alamar blue cytotoxicity assay. It counts as cell-based, human. As to conditions: 72 h, read-out: IC50 and 95%CI. As for the experimental part: as §1
In general terms: The colour change of resazurin is a common sign of viable cells or microbes.

A further series deals with U-87 MG. Kind of series: Alamar blue cytotoxicity assay. As to conditions: 72 h, read-out: IC50 and 95%CI. It counts as cell-based, human. The protocol: as §1
The test system of a further series is HL-60. Kind of series: Alamar blue cytotoxicity assay. As to conditions: 72 h, read-out: IC50 and 95%CI. It counts as cell-based, human. As for the experimental part: as §1
The subject of another series is HepG2. The series is described as follows: Alamar blue cytotoxicity assay. It counts as cell-based, human. Conditions: 72 h, read-out: IC50 and 95%CI. The protocol: as §1
The test system of the next series is MCF-7. Kind of series: Alamar blue cytotoxicity assay. It counts as cell-based, human. Conditions: 72 h, read-out: IC50 and 95%CI. As for the experimental part:
as §1

The subject of another series is A-375. Kind of series: Alamar blue cytotoxicity assay. It counts as cell-based, human. Conditions: 72 h, read-out: IC50 and 95%CI. As for the experimental part: as §1
Another series relates to HCT116. Kind of series: Alamar blue cytotoxicity assay. It counts as cell-based, human. Conditions: 72 h, read-out: IC50 and 95%CI. The protocol:
as §1

The subject of a further series is HSC-3. Kind of series: Alamar blue cytotoxicity assay. As to conditions: 72 h, read-out: IC50 and 95%CI. It counts as cell-based, human. As for the experimental part:
as §1

The subject of the next series is JUKART. Kind of series: Alamar blue cytotoxicity assay. It counts as cell-based, human. Conditions: 72 h, read-out: IC50 and 95%CI. As for the experimental part: as §1
Another series relates to H1299. The series is described as follows: Alamar blue cytotoxicity assay. It counts as cell-based, human. As to conditions: 72 h, read-out: IC50 and 95%CI. As for the experimental part: as §1
The next series has as its system SCC4. The series is described as follows: Alamar blue cytotoxicity assay. It counts as cell-based, human. As to conditions: 72 h, read-out: IC50 and 95%CI. As for the experimental part: as §1
For a further series, the system named is THP-1. The series is described as follows: Alamar blue cytotoxicity assay. Conditions: 72 h, read-out: IC50 and 95%CI. It counts as cell-based, human. As for the experimental part: as §1
For another series, the system named is PANC-1. Kind of series: Alamar blue cytotoxicity assay. It counts as cell-based, human. Conditions: 72 h, read-out: IC50 and 95%CI. The protocol: as §1
The test system of the next series is SCC-9. Kind of series: Alamar blue cytotoxicity assay. It counts as cell-based, human. Conditions: 72 h, read-out: IC50 and 95%CI. The protocol:
as §1

Regarding cis-[Ru(phen)2(xant)](PF6) [RXC], for the setting “2 mg/kg, one animal”, the lung histology entry is “hemorrhage with hemosiderin deposits”. Further, the hematological analysis entry (RXC 2 mg/kg, DOX 0.8 mg/kg, i.p. once a day for 2 weeks) is on record as “reduction in erythrocytes”. Also, the “animals died during the treatment” value (RXC 2 mg/kg, DOX 0.8 mg/kg, i.p. once a day for 2 weeks, n = 15 per group) was “four”. Further, the body weight result (RXC 2 mg/kg, DOX 0.8 mg/kg, i.p. once a day for 2 weeks, p < 0.05) is recorded as “decrease in body weight”. The liver histology entry (RXC 2 mg/kg, DOX 0.8 mg/kg, mainly in treated animals) was “focal areas of hepatocyte coagulation necrosis”. For the same substance, the kidney histology entry (RXC 2 mg/kg, DOX 0.8 mg/kg, more evident than in control) is recorded as “focal areas of coagulation necrosis of the renal cortex tubules”. For the same substance, the pIC50 – broadly, −log10 of the IC50, conventionally taken in molar units – in the series on CAL 27 is 5.27; in the series with K-562, 5.41; in the series on U-87 MG it was 5.15; in the series with HL-60, 5.49; in the series with HepG2, 5.20; with MCF-7 it was 5.02. For the same substance, the pIC50 was 5.46 in the series with A-375; 5.19 in the series on HCT116; 5.32 in the series on HSC-3; 5.39 in the series with JUKART; 4.96 in the series with H1299; 5.72 with SCC4. For the same substance, the pIC50 is 5.55 in the series on THP-1, 4.93 in the series on PANC-1 and 5.55 in the series with SCC-9.
